According to a melting point compilation (Tetko et al.; mined from patent text by program, amines drawn as free bases though some values may be those of a salt):

Row | Structure (SMILES) | melting point [°C]
1 | OCc1nn(-c2ccccc2)c2c1CCCC2 | 75 to 77
2 | CCOC(=O)c1ccc2c(c1)C(=C1CCN(C)CC1)c1ccccc1C=C2 | 94 to 96
3 | CCCNc1cc(C(=O)OCC)cc(S(N)(=O)=O)c1Oc1ccccc1 | 150 to 151
4 | N#CN=c1ccccn1Cc1ccccc1 | 139 to 140
5 | CCNC1CC=C(c2c[nH]c3ccc([N+](=O)[O-])cc23)CC1 (stereo unspecified) | 177 to 179
6 | CC(C)Cn1cnc2c(N)nc3ccc(CCO)cc3c21 | 214 to 216
7 | CCC(C(=O)c1ccc(Cl)cc1)n1ncn(-c2ccc(N3CCN(c4cnccn4)CC3)nc2)c1=O (single isomer, unassigned; (+)) | 190
8 | CCOC(=O)c1cnc2c(-c3cccc(Cl)c3)cnn2c1 | 136
9 | COC(C)(C)c1ccc(-c2cc(-c3c[nH]nc3-c3cccc(C)n3)ccc2F)nc1 | 168 to 169
10 | CCCCN(CCCC)c1ccc(C=CC=CC=CC2=C(C#N)C(=C(C#N)C#N)OC2(C)C)c(OC)c1 | 156 to 160
11 | O=c1c2cccc3c2n(c(=O)n1CC(O)CO)-c1cc(C(F)(F)F)ccc1S3(=O)=O (stereo unspecified) | 223 to 226
12 | NC(=O)C(c1ccccc1)(c1ccccc1)c1ccc(N)cn1 | 215 to 220
13 | Cn1nc(N)c2c(-c3ccccc3)cc(N3CCOCC3)nc21 | 149 to 152
14 | NC(=O)CN1C(=O)C(NC(=O)c2cc3ccccc3[nH]2)C(Cc2ccccc2)Sc2ccccc21 (stereo unspecified) | 275
15 | CCC1COc2c(Cc3ccc(C(C)C)cc3)c(C)c(NC(=O)CC(C)(C)C)c(C)c21 (stereo unspecified) | 156 to 157
16 | CC(C)(CCCCOc1cc(-c2ccccc2)cc(-c2ccccc2)n1)c1nnn[nH]1 | 160 to 162
17 | CCCCCc1c([N+](=O)[O-])cc([N+](=O)[O-])c2nc(C(F)(F)F)[nH]c12 | 86 to 88
18 | Cc1ccc(-c2nnc3c(n2)CCCC3)nc1-c1ccc(F)cc1 | 105
19 | O=C(Nc1ccc(-c2ccccc2)s1)c1ccccc1 | 202 to 203
20 | CN(Cc1ccccc1C(F)(F)F)C1CCN(c2ccc(OC[C@@]3(C)Cn4cc([N+](=O)[O-])nc4O3)cc2)CC1 | 190
21 | O=C(O)CNC(=O)c1ccc([N+](=O)[O-])cc1[N+](=O)[O-] | 188 to 190
22 | CC(=O)C(=NO)C(=O)OC(C)(C)C | 55 to 63
23 | Nc1ccc(SCC2CCCCC2)cc1[N+](=O)[O-] | 80 to 82
24 | CC(=O)c1c(C)nn2ccccc12 | 85.2 to 88.1
25 | c1ccc(-c2ccc3c(ccc4c5ccccc5[nH]c34)c2)cc1 | 254
26 | CN(C)C=Cc1[nH]c(=O)ccc1C(=O)c1ccc(Br)cc1 | 265 to 268

Row | Structure (SMILES) | melting point [°C]
27 | Brc1ccc2c(c1)[nH]c1cc(Br)ccc12 | 224 to 225
28 | COc1ccc(C(C(=O)OC(C)(C)C)N(C(=O)CNC(=O)Nc2cccc(C)c2)c2ccccc2)cc1 (racemic) | 206
29 | N#CCOc1ccccc1S(N)(=O)=O | 184 to 185
30 | CCCc1cccc(CNC(=O)c2nc3scc(COCc4ccc(C(=O)O)cc4)c3c(=O)[nH]2)c1 | 235 to 237
31 | O=C(NC1CCSc2cc(C(=O)O)ccc21)OCc1ccccc1 (stereo unspecified) | 202 to 205
32 | COc1ccccc1N1CCN(CCCC2CCc3onc(-c4ccc(F)cc4)c3C2=O)CC1 (stereo unspecified) | 107 to 108
33 | CCN1C(=O)C(C)(C)C(=O)N(C)c2cc(CN(CCn3ccc4oc(C)cc4c3=O)Cc3ccc(OC)nc3C)ccc21 | 155 to 156
34 | Cc1cc(-c2nc3cccnn3c2-c2ccnc(NC(=O)NCCO)c2)ccc1F | 189 to 190
35 | CSc1cccc(SC)c1S(N)(=O)=O | 197 to 199
36 | CC(C)(C)OC(=O)Nc1cc(N2CCC(O)CC2)c(I)cc1[N+](=O)[O-] | 58 to 60
37 | O[C@H](CCl)COc1ccc(OCc2ccccc2)cc1 | 78 to 80
38 | CC(C)N1C(=O)c2cncnc2N(C(=O)CN2CCN(C)CC2)c2ccccc21 | 133 to 135
39 | CCOC(=O)CCn1c(=O)c2ccccc2n(CCCCl)c1=O | 80 to 81
40 | COc1ccc(C(=O)O)cc1C12CC3CC(CC(C3)C1)C2 | 238 to 239
41 | Cc1cc(Cl)cc(C(=O)C(=O)O)c1NC(=O)c1cc(Br)nn1-c1ncccc1Cl | 139 to 142
42 | Oc1cc(Nc2nnc(Cc3ccncc3)c3ccccc23)ccc1Cl | 245 to 246
43 | COC(=O)CCCOc1ccc2nc3[nH]c(=O)[nH]c3cc2c1 | 299 to 301
44 | CCc1cc2c(cc1Cl)=CCc1cccnc1C=2C1CCN(C(=O)Cc2cccnc2)CC1 | 67.2 to 69.8
45 | Cc1cc(N)c(OCc2ccccc2)c(Cl)c1C | 57 to 58
46 | C=CCOc1ccc2c(C)cc(=O)oc2c1C(=O)C=Cc1ccccc1 | 136 to 139
47 | COc1ccc(C)c(N2CCN(C(=O)Nc3cc4ccccc4nc3OC)CC2)c1 | 128 to 130
48 | c1ccc2c(c1)CC1(c3c[nH]cn3)CCCC21 (stereo unspecified) | 171 to 174
49 | COc1cc(O)ccc1/C=C/C(=O)CC(=O)CCc1ccc(O)cc1 | 131 to 135
50 | Fc1ccc2c(c1)C(OCC1CC1)(C(F)F)c1cc(Cl)cnc1N2 (stereo unspecified) | 169 to 170
51 | CCC(C)(Oc1ccc(CNc2ccc(Cl)cc2)cc1)C(=O)O (stereo unspecified) | 152 to 153
52 | CC(C)(C)OC(=O)n1c(C#N)ccc1-c1ccc2c(c1)C(C)(C)OC(=O)N2 | 165 to 167

Row | Structure (SMILES) | melting point [°C]
53 | CCCOc1ccc(S(=O)(=O)NCC2(NCC)CCCCCC2)cc1-c1nc2c([nH]1)c1nncn1c(=O)n2CCC | 203
54 | Nc1nc(-c2ccc(-c3ccccc3)cc2)cn1N | > 280
55 | CNC(=O)Nc1cc(C(C)(C)C)c2c(c1)C(C)(C)CS2 | > 150
56 | Clc1ccc(-c2cc(Cl)c3cc(Cl)ccc3n2)cc1 | 204 to 208
57 | COc1ccc(S(=O)(=O)C2(C(=O)NO)CCN(Cc3ccccc3)CC2)cc1 | 90 to 95
58 | Cc1nc(N)nc(N)c1CCC(C)c1ccc(Cl)cc1Cl (stereo unspecified) | 164 to 168
59 | N#Cc1c(N2CCc3ccccc3CC2)nc(CO)n(CC(F)(F)F)c1=O | 181 to 185
60 | O=C(O)c1ccccc1-c1c2ccc(=O)cc-2oc2cc(O)ccc12 | 185 to 190
61 | C=C(C)C(=O)Oc1ccc(NS(C)(=O)=O)c(C)c1 | 95 to 97
62 | Cc1oc(-c2ccccc2)nc1CCOc1ccc(C=C2SC(=O)NC2=O)cn1 | 195 to 196
63 | COc1nc(Cl)c(-c2c(F)cc(F)cc2F)c(N[C@@H](C)C(F)(F)F)n1 | 121 to 129
64 | CC1C(c2ccccc2)OC(C)(C)N1C(=O)C(Cl)Cl (stereo unspecified) | 126
65 | C/C=C/c1ccc2c(NCc3ccc(NC(=O)c4ccc(Cl)nc4)cc3)nc(N(C)C)nc2c1 | 185
66 | Cc1c(C(=O)O)cccc1-n1cccc1 | 146 to 148
67 | CCOC(=O)C(C)(C)Oc1ccc(OCCn2c(=O)sc3cc(C(=O)c4ccccc4)ccc32)cc1 | 120 to 121
68 | Cn1ncc2c(=O)n3c(nc21)SCC3 | 257 to 258
69 | CC(c1ccc(N(C)C)cc1)c1ccc(N(C)C)cc1 | 68
70 | O=C(NNS(=O)(=O)c1ccccc1)c1ccc2c(c1)OCO2 | 156 to 158
71 | COc1ccc2c(c1O)C(=O)CC(c1ccc(F)cc1)=N2 | 60 to 62
72 | Cc1ccc(C(=C/C=C/C(=O)O)c2ccc(C)cc2)cc1 | 224 to 226
73 | CN1CCc2c([nH]c(Br)c2Br)C(c2ccccc2)C1 (stereo unspecified) | 136 to 137
74 | Cc1ccc(S(=O)(=O)N2CCC(Sc3ccccc3)CC2)cc1 | 105 to 108
75 | CCC1CCC(Oc2cc(F)cc(C(=O)Nc3ccc(OCc4ccncc4)c4ccccc34)c2)CC1 (stereo unspecified) | 93 to 95
76 | CC(C)NC1=NS(=O)(=O)c2cc(F)c(Cl)cc2N1 | 282 to 285
77 | O=S1NC(Cc2cc3cc(F)ccc3o2)=NO1 (stereo unspecified) | 144 to 145
78 | O=C(NCCCn1ccnc1-c1ccccc1)c1cc2ccccc2[nH]1 | 167 to 169

Row | Structure (SMILES) | melting point [°C]
79 | COc1cccc(C(=O)c2c(N)sc3c2CCN(Cc2ccccc2)C3)c1OC | 172 to 173
80 | CCC1c2cccn2-c2ccc(F)cc2N1S(=O)(=O)c1cc(C)c(O)c(C)c1 (stereo unspecified) | 216 to 218
81 | CN1CCC(c2c[nH]c3ccc(NC(=O)C4CCC4)nc23)CC1 | 104
82 | O=C(NS(=O)(=O)N1CCCCC1)C1=NN(c2ccc(Cl)cc2)C(c2ccccc2)C1 (stereo unspecified) | 176 to 179
83 | O=C1CC(c2cccs2)CN1 (stereo unspecified) | 75 to 76.5
84 | N#CCOS(=O)(=O)c1cccc([N+](=O)[O-])c1 | 66 to 69
85 | Cc1ccc(C(=O)c2cccc3c2CCCC3C(=O)O)cc1 (stereo unspecified) | 102 to 103
86 | CC(C)CC(NC(=O)C(C)S)C(=O)O (stereo unspecified) | 77 to 84
87 | COc1ccc(Cl)c(Oc2cnc(-c3ncccn3)nc2C=O)c1 | 211
88 | CC(O)c1cc2c(o1)C(=O)c1cccc(O)c1C2=O (stereo unspecified) | 148 to 149
89 | CCOC(=O)c1ccc2cccc([N+](=O)[O-])c2c1 | 120
90 | Fc1cccc(F)c1-c1nnc(-c2ccccc2Br)nn1 | 168
91 | CSc1nccc(-c2c(-c3ccc(F)cc3)nc3occn23)n1 | 144 to 145
92 | CC(CO)(CO)NS(=O)(=O)c1cccc(NC(=O)c2cnn3c(C(F)F)cc(-c4ccc(C(F)(F)F)cc4)nc23)c1 | 246
93 | CN1CCN(c2nn(S(=O)(=O)c3ccccc3)c3cc(Cl)ccc23)CC1 | 139 to 141
94 | CCc1n[nH]c2c(=O)[nH]c(-c3cc(S(C)(=O)=O)ccc3OCc3ccccn3)nc12 | 283 to 286
95 | Cc1oc(-c2ccc(Cl)cc2)cc1C(=O)Nc1cc(Cl)ccc1-c1noc(=O)[nH]1 | 248 to 251
96 | CC(C)CC(=O)N1CCC(NC(=O)c2ccccc2Oc2ccc(Cl)cc2Cl)CC1 | 57 to 60
97 | Cc1ccc(C)c(SCCC(=O)O)c1 | 100 to 102
98 | CON(C)S(=O)(=O)c1ccccc1N | 50
99 | CN1C(=O)C(N)=C(C#N)C1=O | 284
100 | O=C(c1ccc2ccccc2c1)n1c2cc(O)c(O)cc2c2ccc(O)c(O)c21 | 266 to 270
101 | CN1CN(c2cccc([N+](=O)[O-])c2)c2ncccc2C1=O | 247 to 248
